What was measured:
Stagonospora nodorum = assay: Test D: wheat glume blotch, preventive spray on wheat seedlings; conditions: 100 = 100% disease control; for Test D rating (% disease control): wheat glume blotch, 0 = no control; for Test D disease control rating: 50 ppm test solution (asterisked compounds), 0 = no control relative to controls
Zymoseptoria tritici = assay: Test E: wheat leaf blotch, preventive spray on wheat seedlings; conditions: 100 = 100% disease control; for Test E rating (% disease control): wheat leaf blotch, 0 = no control; for Test E disease control rating: 50 ppm test solution (asterisked compounds), 0 = no control relative to controls
[1] = tested on: Erysiphe graminis f sp. tritici; assay: Test G: wheat powdery mildew, preventive spray on wheat seedlings; conditions: 100 = 100% disease control; for Test G rating (% disease control): wheat powdery mildew, 0 = no control; for Test G disease control rating: 50 ppm test solution (asterisked compounds), 0 = no control relative to controls
Botrytis cinerea = assay: Test B: gray mold, preventive spray on tomato seedlings; conditions: 100 = 100% disease control; for Test B rating (% disease control): gray mold on tomato, 0 = no control; for Test B disease control rating: 50 ppm test solution (asterisked compounds), 0 = no control relative to controls
Text: General protocol for preparing test solutions for Tests A-G: the test compounds were first dissolved in acetone in an amount equal to 3% of the final volume and then suspended at the desired concentration (in ppm) in acetone and purified water (50/50 mix by volume) containing 250 ppm of the surfactant PEG400 (polyhydric alcohol esters). The resulting test suspensions were then used in Tests A-G. Compounds were sprayed at a concentration of 50 ppm (*) or 10 ppm to the point of run-off on the test plants, the equivalent of a rate of 200 g/ha or 40 g/ha, respectively.
The test solution was sprayed to the point of run-off on tomato seedlings. The following day the seedlings were inoculated with a spore suspension of Botrytis cinerea (the causal agent of gray mold on many crops) and incubated in a saturated atmosphere at 20° C. for 48 h, and moved to a growth chamber at 27° C. for 2 days, after which time visual disease ratings were made.
Compounds with an asterisks (*) were applied at a concentration of 50 ppm, otherwise test solutions were applied at 10 ppm.

[2] = tested on: Puccinia recondita f sp. tritici; assay: Test F: wheat leaf rust, preventive spray on wheat seedlings; conditions: 100 = 100% disease control; for Test F rating (% disease control): wheat leaf rust, 0 = no control; for Test F disease control rating: 50 ppm test solution (asterisked compounds), 0 = no control relative to controls
Phytophthora infestans = format: in vivo; conditions: 100 = 100% disease control; for Test C rating (% disease control): 50 ppm (asterisk), tomato late blight, 0 = no control; for Test C disease control rating: 50 ppm test solution (asterisked compounds), 0 = no control relative to controls

Compound | Test D rating (% disease control) (Stagonospora nodorum; 50 ppm (asterisk)) | Test E rating (% disease control) (Zymoseptoria tritici; 50 ppm (asterisk)) | Test G rating (% disease control) ([1]; 50 ppm (asterisk)) | Test B rating (% disease control) (Botrytis cinerea; 50 ppm (asterisk)) | Test F rating (% disease control) ([2]; 50 ppm (asterisk)) | Test C rating (% disease control) (Phytophthora infestans) | other results
OC(Cn1cncn1)(C1=NOC(c2ccccc2)C1)c1ccccc1 (mixture of isomers) [Compound 115] | 100% | 0% | 99% | 51% | 68% | 0% | –
OC(Cn1cncn1)(C1=NOC(c2ccc(F)cc2)C1)c1ccc(F)cc1 (single isomer, unassigned) [Compound 119] | – | 0% | 100% | 0% | 41% | 0% | –
OC(Cn1cncn1)(C1=NOC(c2ccc(Cl)cc2)C1)c1ccc(Cl)cc1 (single isomer, unassigned) [Compound 123] | 100% | 100% | 100% | 56% | 100% | 0% | –
OC(Cn1cncn1)(C1=NOC(c2ccc(F)cc2)C1)c1ccccc1 (mixture of isomers) [Compound 116] | 100% | 0% | 99% | 0% | 80% | 0% | –
CC1(c2ccc(Cl)cc2)CC(C(O)(Cn2cncn2)c2ccccc2)=NO1 (single isomer, unassigned) [Compound 210] | 100% | 41% | 100% | 0% | 100% | 0% | –
OC(Cn1cncn1)(C1=NOC(c2ccc(F)cc2)C1)c1ccc(F)cc1 (single isomer, unassigned) [Compound 122] | 100% | 77% | 100% | 0% | 100% | 0% | –
CC1(c2ccc(Cl)cc2)CC(C(O)(Cn2cncn2)c2ccc(Cl)cc2)=NO1 (single isomer, unassigned) [Compound 212] | 96% | 0% | 100% | 28% | 100% | 0% | –
CC(C)(C)C(O)(Cn1cncn1)C1=NOC(c2ccc(Cl)cc2)C1 (single isomer, unassigned) [Compound 132] | 100% | 81% | 100% | 99% | 100% | 0% | –
OC(Cn1cncn1)(C1=NOC(c2ccc(Cl)cc2)C1)c1ccc(F)cc1F (single isomer, unassigned) [Compound 130] | 100% | 11% | 100% | 14% | 100% | 0% | –
CC(C)(C)C(O)(Cn1cncn1)C1=NOC(c2ccc(Cl)cc2)C1 (single isomer, unassigned) [Compound 133] | 100% | 88% | 99% | 95% | 100% | 0% | –
OC(Cn1cncn1)(C1=NOC(c2ccccc2)(C(F)(F)F)C1)c1ccc(Cl)cc1 (single isomer, unassigned) [Compound 214] | – | – | – | – | – | – | Test D disease control rating (Stagonospora nodorum): 0%; Test E disease control rating (Zymoseptoria tritici): 1%; Test G disease control rating [1]: 99%; Test B disease control rating (Botrytis cinerea): 0%; Test F disease control rating [2]: 25%; Test C disease control rating (Phytophthora infestans): 0%
OC(Cn1cncn1)(C1=NOC(Cc2ccccc2)C1)c1ccc(Cl)cc1 (single isomer, unassigned) [Compound 136] | 100% | 83% | 100% | 92% | 100% | 0% | –
OC(Cn1cncn1)(C1=NOC(c2ccc(Cl)cc2)C1)c1ccccc1 (mixture of isomers) [Compound 117] | 100% | 11% | 98% | 61% | 99% | 0% | –
CC1(c2ccc(Cl)cc2)CC(C(O)(Cn2cncn2)c2ccccc2)=NO1 (single isomer, unassigned) [Compound 211] | 0% | 0% | 76% | 0% | 28% | 0% | –
CC(C)(C)C1CC(C(O)(Cn2cncn2)c2ccccc2)=NO1 (single isomer, unassigned) [Compound 124] | 0% | 6% | 96% | 0% | 28% | 0% | –
CC(C)(C)C1CC(C(O)(Cn2cncn2)c2ccccc2)=NO1 (single isomer, unassigned) [Compound 125] | 0% | 0% | 89% | 0% | 28% | 0% | –
OC(Cn1cncn1)(C1=NOC(c2ccccc2)(C(F)(F)F)C1)c1ccc(Cl)cc1 (single isomer, unassigned) [Compound 215] | – | – | – | – | – | – | Test D disease control rating (Stagonospora nodorum): 0%; Test E disease control rating (Zymoseptoria tritici): 0%; Test G disease control rating [1]: 100%; Test B disease control rating (Botrytis cinerea): 0%; Test F disease control rating [2]: 100%; Test C disease control rating (Phytophthora infestans): 0%
CC1(c2ccc(Cl)cc2)CC(C(O)(Cn2cncn2)c2ccc(Cl)cc2)=NO1 (single isomer, unassigned) [Compound 213] | 52% | 0% | 96% | 7% | 99% | 0% | –
OC(Cn1cncn1)(C1=NOC(c2ccc(Cl)cc2)C1)c1ccc(Cl)cc1 (single isomer, unassigned) [Compound 120] | 95% | 8% | 98% | 0% | 100% | 0% | –
OC(Cn1cncn1)(C1=NOC(c2ccc(Cl)cc2)C1)c1ccc(F)cc1F (single isomer, unassigned) [Compound 131] | 100% | 5% | 100% | 0% | 100% | 0% | –
OC(Cn1cncn1)(C1=NOC(c2ccccc2F)C1)c1ccccc1 (mixture of isomers) [Compound 118] | 100% | 0% | 99% | 68% | 89% | 0% | –
OC(Cn1cncn1)(C1=NOC(c2c(F)cccc2F)C1)c1ccccc1 (mixture of isomers) [Compound 1] | 99% | 18% | 100% | 0% | 99% | 0% | –
OC(Cn1cncn1)(C1=NOC(COc2ccc(OCc3ccccc3)cc2)C1)c1ccc(Cl)cc1 (single isomer, unassigned) [Compound 70] | – | – | – | – | – | – | Test D rating (% disease control) (Stagonospora nodorum; 10 ppm): 47%; Test E rating (% disease control) (Zymoseptoria tritici; 10 ppm): 0%; Test G rating (% disease control) ([1]; 10 ppm): 76%; Test B rating (% disease control) (Botrytis cinerea; 10 ppm): 28%; Test F rating (% disease control) ([2]; 10 ppm): 9%
OC(Cn1cncn1)(C1=NOC(c2cccc(Oc3ccccc3)c2)C1)c1ccc(Cl)cc1 (single isomer, unassigned) [Compound 177] | – | – | – | – | – | – | Test D rating (% disease control) (Stagonospora nodorum; 10 ppm): 51%; Test E rating (% disease control) (Zymoseptoria tritici; 10 ppm): 0%; Test G rating (% disease control) ([1]; 10 ppm): 89%; Test B rating (% disease control) (Botrytis cinerea; 10 ppm): 0%; Test F rating (% disease control) ([2]; 10 ppm): 0%

— patent US20160242416A1, “FUNGICIDAL ISOXAZOLINE CARBINOLS” (E I DU PONT DE NEMOURS AND COMPANY, priority 2015, published 2016)
